Measured values taken from PMC4106900 (Journal of medicinal chemistry, 2012).
Where a name gives a salt, the structure may show the parent alone.

How the values were obtained:
[1] = biological target: emopamil binding protein (EBP); conditions: read-out: Ki for EBP; cited from earlier work
[2] = biological target: vesicular acetylcholine transporter (VAChT); conditions: read-out: Ki for VAChT; cited from earlier work
[3] = system: 59 targets (non-SR sites); assay: NovaScreen and in-house profile of 59 targets; format: binding; conditions: 10,000 nM screening concentration
α2-adrenoceptors = assay: NovaScreen radioligand displacement screen; format: binding; conditions: 100 nM screening concentration
[4] = system: peripheral muscarinic receptors; assay: NovaScreen radioligand displacement screen; format: binding; conditions: 100 nM screening concentration
[5] = system: neuronal (α-bungarotoxin insensitive) nicotinic receptors; assay: NovaScreen radioligand displacement screen; format: binding; conditions: 100 nM screening concentration
opioid receptors = assay: Radioligand displacement screen; format: binding; conditions: 100 nM screening concentration
calcium L type channels = assay: NovaScreen radioligand displacement screen; format: binding; conditions: 100 nM screening concentration
sodium, site 2 channels = assay: NovaScreen radioligand displacement screen; format: binding; conditions: 100 nM screening concentration
acetylcholine esterase = acetylcholine esterase (Homo sapiens, UniProt P22303); assay: NovaScreen radioligand displacement screen; format: binding; conditions: 100 nM screening concentration
[6] = In vitro half-life in rat liver microsomes
[7] = Stability of formulated [18F]13 by analytical reverse-phase HPLC; format: physicochemical; conditions: saline/ethanol (9:1, total 10 mL)
[8] = Small-animal PET imaging, baseline brain uptake of [18F]13; format: in vivo, mouse
[9] = Ex vivo determination of radiometabolites in mouse plasma, liver and brain
S1Rs = S1Rs (Mus musculus, UniProt O55242); assay: Small-animal PET blocking studies of [18F]13 binding in brain; format: in vivo; conditions: pre-treatment 1 mg/kg, 10 min prior to iv [18F]13, whole mouse brain
S1R = conditions: read-out: Ki for S1R; cited from earlier work
[10] = cited from earlier work; for time of maximum uptake in the brain post injection: normal mice

Sequence of acetylcholine esterase (P22303 32-614): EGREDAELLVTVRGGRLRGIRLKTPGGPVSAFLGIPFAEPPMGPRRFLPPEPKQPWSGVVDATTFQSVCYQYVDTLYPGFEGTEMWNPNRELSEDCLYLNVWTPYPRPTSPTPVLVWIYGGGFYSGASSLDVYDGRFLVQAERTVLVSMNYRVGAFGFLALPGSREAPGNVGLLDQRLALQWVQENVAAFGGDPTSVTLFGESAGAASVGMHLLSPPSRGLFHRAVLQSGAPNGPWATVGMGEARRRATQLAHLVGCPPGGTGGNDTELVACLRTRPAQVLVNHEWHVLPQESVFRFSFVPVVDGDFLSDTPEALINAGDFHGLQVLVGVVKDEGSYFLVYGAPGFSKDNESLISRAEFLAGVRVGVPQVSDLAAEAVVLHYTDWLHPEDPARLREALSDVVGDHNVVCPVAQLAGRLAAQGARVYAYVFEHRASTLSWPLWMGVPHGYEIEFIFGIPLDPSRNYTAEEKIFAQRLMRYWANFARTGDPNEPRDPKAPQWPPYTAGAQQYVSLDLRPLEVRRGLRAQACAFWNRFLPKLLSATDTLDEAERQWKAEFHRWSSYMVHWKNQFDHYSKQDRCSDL
Sequence of S1Rs (O55242 whole entry): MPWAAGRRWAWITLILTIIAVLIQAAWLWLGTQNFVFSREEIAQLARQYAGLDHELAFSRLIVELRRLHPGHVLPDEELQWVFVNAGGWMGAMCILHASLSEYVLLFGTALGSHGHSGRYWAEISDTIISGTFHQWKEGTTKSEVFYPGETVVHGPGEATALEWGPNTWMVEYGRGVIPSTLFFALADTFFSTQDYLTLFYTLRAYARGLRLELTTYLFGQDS

COc1cc(CCN2CCN(CCCc3ccccc3)CC2)ccc1O[11CH3] [compound 3]
Ki [1]: 1.7 nM
Ki [2]: 50 nM

O=c1sc2cc(CCCF)ccc2n1CCN1CCCCCC1 [compound 13, 3-(2-(azepan-1-yl)ethyl)-6-(3-fluoropropyl)benzo[d]thiazol-2(3H)-one hydrochloride]
displacement of the radioligand [3]: < 50%
displacement of the radioligand (α2-adrenoceptors): < 50%
displacement of the radioligand [4]: < 50%
displacement of the radioligand [5]: < 50%
displacement of the radioligand (opioid receptors): < 50%
displacement of the radioligand (calcium L type channels): < 50%
displacement of the radioligand (sodium, site 2 channels): < 50%
displacement of the radioligand (acetylcholine esterase): < 50%
clearance [6]: 0.18 mL/min/g

O=c1sc2cc(CCCF)ccc2n1CCN1CCCCCC1 [[^18F]13, 6-(3-fluoropropyl)-3-(2-(azepan-1-yl)ethyl)benzo[d]thiazol-2(3H)-one]
time formulated tracer shown to be stable [7]: at least 5.5 hours
brain uptake at 60 min ([8]; baseline TAC, whole mouse brain): 6 %ID/g
maximum uptake in brain ([8]; baseline TAC, whole mouse brain, within the first few minutes): ~ 17 %ID/g
brain uptake at 60 min post injection as percent of maximum ([8]; mouse brain): 65%
percentage of intact tracer in plasma ([9]; 30 min post administration): 60%
percentage of intact tracer in plasma ([9]; 60 min post administration): 50%
percentage of intact tracer in brain ([9]; throughout the study (30 and 60 min)): 100%

CN(C)CCN(C)CCc1ccc(Cl)c(Cl)c1 [compound 18, N-[2-(3,4-dichlorophenyl)ethyl]-N-methyl-2-(dimethylamino)-ethylamine]
reduction of [18F]13 binding in the brain at 60 min (S1Rs): 81%

CCCc1ccc2c(c1)sc(=O)n2CCN1CCCCCC1 [compound 9]
Ki (S1R): 0.56 nM

FCCC1OC2(CCN(Cc3ccccc3)CC2)c2ccccc21 (centres unmarked) [compound 8]
brain level at 60 min post injection as percent of maximum ([10]; mouse brain, biodistribution): 81%
time of maximum uptake in the brain post injection [10]: 30 min

COc1cc(CCN2CCN(CCCc3ccccc3)CC2)ccc1OC[18F] [compound 4]
time of maximum uptake in the brain post injection [10]: 30 min
